System: leukemia cells
Assay: Absolute leukemia cell number quantification by flow cytometry in PBMCs from patients with CLL
Format: cell-based, human
Settings: 0 - 400 nM, 24 hours; PBMCs from patients with CLL (n = 13); dose-dependent; Figure 1A
Description: To evaluate absolute cell numbers, an equal volume of PKH26 reference microbeads (Sigma-Aldrich) was added to each sample after staining for immune subset identification. Microbeads (5x10^3) were acquired by flow cytometry and absolute numbers of each immune population within the sample were calculated. Normalized percentage values were calculated considering the control (DMSO)-treated cells as 100%.
The in vitro cytotoxic activity of EC-7072 against primary CLL cells was assessed by: • (i) incubating PBMCs isolated from patients with CLL (n = 13) following treatment with increasing concentrations of EC-7072 (0 - 400 nM) for 24 hours. Numbers of leukemia cells were evaluated by flow cytometry and normalized to their respective control (DMSO) condition for each individual patient to obtain percentage of leukemia cells (Figure 1A); • (ii) incubating PBMCs from patients with CLL (n = 10) with or without EC-7072 (100-400 nM) for 24 hours. Viability of leukemia cells was determined by cytofluorometric assessment of DiOC6(3)/PI staining and normalized to their respective control condition to obtain percentage viability (Figure 1B); • (iii) incubating PBMCs from patients with CLL (n = 10) with increasing concentrations of EC-7072 (0 - 400 nM) for 24 hours. […]

With `CO[C@@H]([C@@H]1Cc2cc3cc(O[C@H]4C[C@@H](O[C@H]5C[C@@H](O)[C@H](O)[C@@H](C)O5)[C@H](O)[C@@H](C)O4)c(C)c(O)c3c(O)c2C(=O)[C@H]1O[C@H]1C[C@@H](O[C@H]2C[C@@H](O[C@H]3C[C@](C)(O)[C@H](O)[C@@H](C)O3)[C@@H](O)[C@@H](C)O2)[C@H](O)[C@@H](C)O1)[C@@H](O)C(C)=O` [EC-7072, mithramycin SK] the leukemia cell numbers was “significantly decreased”.
